Results on five compounds are retold here after paper PMC5490406, “Syntheses of Radioiodinated Pyrimidine-2,4,6-Triones as Potential Agents for Non-Invasive Imaging of Matrix Metalloproteinases” (Pharmaceuticals, 2017).

Broadly, the IC50 is the midpoint of a concentration-inhibition curve. Low values mean greater potency, high ones weaker potency. As a reminder, the melting point is the temperature, or range, at which the solid turns liquid.

One data set concerns the target human active MMP-9 (Homo sapiens, UniProt P14780). Put plainly: fluorometric in vitro MMP inhibition assay, MMP-9. The format is biochemical. The procedure: (§1) The MMP inhibition potencies of the barbituric acid derivatives 5a, 5b, 6, 9 and 10 were measured in fluorometric in vitro inhibition assays as described previously.
(§2) An aliquot of substrate (10 μL of a 50 μM solution) was then added to 90 μL of the preincubated MMP/inhibitor mixture, and the fluorescence was determined at 37 °C by following product release with time. The fluorescence changes were monitored using a Fusion Universal Microplate Analyzer (Packard Bioscience, Boston, MA, USA) with excitation and emission wavelengths set to 330 and 390 nm, respectively. Reaction rates were measured from the initial 10 min of the reaction profile where product release was linear with time and plotted as a function of inhibitor dose. From the resulting inhibition curves, the IC50 values for each inhibitor were calculated by non-linear regression analysis, performed using the Grace 5.1.8 software (Linux).

A further data set addresses T1, human active MMP-2 (Homo sapiens, UniProt P08253).
T1 sequence (P08253 110-660): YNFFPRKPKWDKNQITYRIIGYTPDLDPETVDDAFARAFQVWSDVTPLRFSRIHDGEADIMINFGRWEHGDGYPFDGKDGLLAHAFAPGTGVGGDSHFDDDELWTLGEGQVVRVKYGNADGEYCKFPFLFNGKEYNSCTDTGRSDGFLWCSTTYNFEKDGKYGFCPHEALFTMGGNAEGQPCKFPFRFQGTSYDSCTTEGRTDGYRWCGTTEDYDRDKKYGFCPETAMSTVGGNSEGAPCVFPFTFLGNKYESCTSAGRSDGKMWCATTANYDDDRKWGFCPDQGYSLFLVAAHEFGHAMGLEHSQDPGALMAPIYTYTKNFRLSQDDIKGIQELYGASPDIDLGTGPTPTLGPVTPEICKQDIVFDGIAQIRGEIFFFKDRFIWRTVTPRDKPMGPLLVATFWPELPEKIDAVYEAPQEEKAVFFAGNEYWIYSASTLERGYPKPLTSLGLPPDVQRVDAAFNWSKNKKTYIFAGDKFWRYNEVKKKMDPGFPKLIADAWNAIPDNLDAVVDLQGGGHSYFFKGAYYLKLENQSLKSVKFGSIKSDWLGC
Put plainly: fluorometric in vitro MMP inhibition assay, MMP-2. It counts as biochemical. The protocol:
as §1, §2

In a further data set the target is human active MMP-13 (Homo sapiens, UniProt P45452). Put plainly: fluorometric in vitro MMP inhibition assay, MMP-13. The format is biochemical. The protocol:
as §1, §2

The target of the next data set is human active MMP-14 (Homo sapiens, UniProt P50281). Description: fluorometric in vitro MMP inhibition assay, MMP-14. The format is biochemical. The procedure: as §1, §2
The target in the next data set is human active MMP-8 (Homo sapiens, UniProt P22894). Description: fluorometric in vitro MMP inhibition assay, MMP-8. It counts as biochemical. The protocol:
as §1, §2

Data set [1] is described as follows: calculated logP/logD (ACD/Chemsketch ACD/Labs 6.00). As to conditions: relative to 12.
Where [2] appears, read: IC50 MMP-9, mean ± SD of three assays.
[3] abbreviates: IC50 MMP-2, mean ± SD of three assays.
Where [4] appears, read: IC50 MMP-9 (range given jointly for MMP-2 and -9), summary of Table 1.
The mark [5] stands for this setting: IC50 MMP-2 (range given jointly for MMP-2 and -9), summary of Table 1.

Chain of human active MMP-9 (P14780 107-707 limits assumed): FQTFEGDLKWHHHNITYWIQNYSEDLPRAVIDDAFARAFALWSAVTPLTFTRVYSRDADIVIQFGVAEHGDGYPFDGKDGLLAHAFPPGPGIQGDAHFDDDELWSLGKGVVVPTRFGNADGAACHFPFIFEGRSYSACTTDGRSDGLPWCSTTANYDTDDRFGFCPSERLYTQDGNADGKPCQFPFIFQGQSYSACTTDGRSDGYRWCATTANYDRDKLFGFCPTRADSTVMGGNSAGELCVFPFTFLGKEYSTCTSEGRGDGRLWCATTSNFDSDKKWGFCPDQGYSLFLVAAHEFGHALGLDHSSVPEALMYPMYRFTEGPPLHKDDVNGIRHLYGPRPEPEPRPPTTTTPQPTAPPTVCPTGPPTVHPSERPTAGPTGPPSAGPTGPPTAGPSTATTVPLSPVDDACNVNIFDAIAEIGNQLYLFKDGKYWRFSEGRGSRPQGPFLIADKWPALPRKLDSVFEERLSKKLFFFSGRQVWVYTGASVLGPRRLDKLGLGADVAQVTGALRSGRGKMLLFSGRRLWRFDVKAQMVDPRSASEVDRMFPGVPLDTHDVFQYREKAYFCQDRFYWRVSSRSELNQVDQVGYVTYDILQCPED
Chain of human active MMP-8 (P22894 101-467): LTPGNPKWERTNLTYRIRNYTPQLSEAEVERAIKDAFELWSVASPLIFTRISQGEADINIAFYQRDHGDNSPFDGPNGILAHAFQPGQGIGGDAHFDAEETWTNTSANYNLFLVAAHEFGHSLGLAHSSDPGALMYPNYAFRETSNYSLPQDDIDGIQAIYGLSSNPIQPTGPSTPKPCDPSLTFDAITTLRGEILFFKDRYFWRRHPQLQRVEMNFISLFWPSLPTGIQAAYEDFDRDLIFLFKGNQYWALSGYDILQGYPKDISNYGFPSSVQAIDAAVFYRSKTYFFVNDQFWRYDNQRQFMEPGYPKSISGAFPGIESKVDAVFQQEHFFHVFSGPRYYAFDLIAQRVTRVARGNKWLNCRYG

As for `O=C1NC(=O)C(c2ccc(I)cc2)(N2CCN(CCO)CC2)C(=O)N1` [5a, 5-[4-(2-Hydroxyethyl)piperazin-1-yl]-5-(4-iodophenyl)pryrimidine-2,4,6-trione], the melting point is 168 to 172 °C. For the same compound, the IC50 against human active MMP-9 (setting [2]) was found to be 550 ± 180 nM. Besides, the IC50 against human active MMP-2 (setting [3]) turned out to be 10 ± 3 nM.
The compound `O=C(O)CCN1CCN(C2(c3ccc(I)cc3)C(=O)NC(=O)NC2=O)CC1` [5b, 5-[4-(2-Carboxyethyl)piperazin-1-yl]-5-(4-iodophenyl)pyrimidine-2,4,6-trione] returned a melting point of 139 to 142 °C. Moreover, at human active MMP-9 (setting [4]), the half-inhibitory concentration (IC50) lay in the range of 670 to 1600 nM. On human active MMP-9 (setting [2]), 1600 ± 600 nM corresponded to half-maximal inhibition (IC50). For the same compound, on human active MMP-2 (setting [5]), the half-maximal inhibitory concentration (IC50) was 670 to 1600 nM. On human active MMP-2 (setting [3]), this compound had an IC50 of 1200 ± 340 nM.
As to `O=C1NC(=O)C(c2ccc(O)c(I)c2)(N2CCN(CCO)CC2)C(=O)N1` [compound 6, 5-(4-Hydroxy-3-iodophenyl)-5-[4-(2-hydroxyethyl)piperazin-1-yl]pryrimidine-2,4,6-trione], the melting point is 168 to 170 °C (dec.). Further, on human active MMP-9 (setting [4]), the IC50 was 670 to 1600 nM. Moreover, on human active MMP-9 (setting [2]), it took 1300 ± 320 nM to reach half-maximal inhibition (IC50). Further, the IC50 at human active MMP-2 (setting [5]) is 670 to 1600 nM. On human active MMP-2 (setting [3]), the IC50 is 670 ± 210 nM.
Regarding `O=C(O)CCN1CCN(C2(c3ccc(Oc4ccc(I)cc4)cc3)C(=O)NC(=O)NC2=O)CC1` [compound 9, 5-[4-(2-Carboxyethyl)piperazin-1-yl]-5-[4-(4-iodophenoxy)phenyl]pyrimidine-2,4,6-trione], the melting point was 236 to 242 °C (dec.). The same compound displayed an IC50 against human active MMP-13 of 362 ± 24 nM. Moreover, half-maximal inhibition at human active MMP-14 (IC50) was put at 49 nM. In addition, the IC50 on human active MMP-9 (setting [2]) was determined as 1.3 ± 0.2 nM. This compound returned a half-maximal inhibitory concentration (IC50) at human active MMP-2 (setting [3]) of 29 ± 2 nM. This compound gave an IC50 against human active MMP-8 of 1170 ± 80 nM. In addition, in data set [1], the “increased water solubility compared to 12, inferred from clogD shift” value is recorded as “approximately 400 fold”.
The compound `O=C1NC(=O)C(c2ccc(Oc3ccc(I)cc3)cc2)(N2CCN(CCOCCOCCOCCF)CC2)C(=O)N1` [compound 10, 5-(4-(2-(2-(2-(2-Fluoroethoxy)ethoxy)ethoxy)ethyl)piperazin-1-yl)-5-(4-(4-iodophenoxy)phenyl)-pyrimidine-2,4,6-trione] gave a melting point of 176 to 177 °C. For the same compound, the IC50 against human active MMP-13 stood at 28 ± 11 nM. Further, on human active MMP-9 (setting [2]), the IC50 amounted to 17 ± 5 nM. Besides, 23 ± 5 nM corresponded to half-maximal inhibition against human active MMP-2 (setting [3]) (IC50). This compound also gave an IC50 at human active MMP-8 of 146 ± 48 nM.
